Results published in patent US20160033699A1, “POLARIZING PLATE” (NITTO DENKO CORPORATION, priority 2014, published 2016).

Assay: log P value (octanol/water partition coefficient)
Conditions: not given
With `CSc1ccc(C(=O)C(C)(C)N2CCOCC2)cc1` [IRGACURE 907, 2-methyl-1-(4-methylthiophenyl)-2-morpholinopropan-1-one] the logP was 2.09.

Same assay, conditions: octanol/water
In the case of `C=CC(=O)OCCCCCCCCCCOC(=O)C=C` [1,10-decanediol diacrylate], the logP is reported as 4.1.

Same assay, conditions: octanol/water partition coefficient
For `CCc1cc(CC)c2sc3ccccc3c(=O)c2c1` [KAYACURE DETX-S, diethylthioxanthone], the “log P” value was 5.12.
For bisphenol A di(meth)acrylate, the “log P” value was 5.46.
With “bisphenol A-propylene oxide (2 mole) adduct di(meth)acrylate” the “log P” value was 6.10.
In the case of “bisphenol A-propylene oxide (4 mole) adduct di(meth)acrylate”, the “log P” value is reported as 6.43.
With “neopentyl glycol hydroxypivalate-(meth)acrylic acid adduct” the “log P” value was 3.35.
In the case of p-phenylphenol (meth)acrylate, the “log P” value is reported as 3.98.
With “tricyclodecanedimethanol diacrylate [LIGHT ACRYLATE DCP-A]” the “log P” value was 3.05.
